Laboratory results published in patent US20110201815A1, “FUSED HETEROCYCLIC DERIVATIVE AND USE THEREOF FOR MEDICAL PURPOSES” (KISSEI PHARMACEUTICAL CO., LTD., priority 2008, published 2011).

Target: T1, Xanthine oxidase (from bovine milk, Sigma) (Bos taurus, UniProt P80457)
T1 construct: Xanthine oxidase (from bovine milk, Sigma); purchased Sigma; host or cells: bovine milk
Experiment: Xanthine oxidase inhibitory activity
Format: biochemical
Settings: xanthine 200 μM added, 10 minutes at room temperature, absorbance at 290 nm
Description: Test compounds were dissolved in DMSO (Wako) at 40 mM concentration and then diluted to intended concentrations with phosphate-buffered saline (PBS).
Xanthine oxidase (from bovine milk, Sigma) was prepared with phosphate-buffered saline (PBS) at 0.02 units/mL, and then the solution was added to 96 well plates at 50 μL/well. In addition, test compounds diluted with PBS were added at 50 μL/well. Xanthine (Wako) at 200 μM prepared with PBS was added at 100 μL/well, and the reaction was measured for 10 minutes at room temperature. […] The absorbance under a condition without xanthine is 0%, and control without test compounds is 100%. Fifty % inhibitory concentration (IC50) of test compounds was calculated (Table 5). Ex. No in the table indicates example number.

T1 sequence (P80457 whole entry): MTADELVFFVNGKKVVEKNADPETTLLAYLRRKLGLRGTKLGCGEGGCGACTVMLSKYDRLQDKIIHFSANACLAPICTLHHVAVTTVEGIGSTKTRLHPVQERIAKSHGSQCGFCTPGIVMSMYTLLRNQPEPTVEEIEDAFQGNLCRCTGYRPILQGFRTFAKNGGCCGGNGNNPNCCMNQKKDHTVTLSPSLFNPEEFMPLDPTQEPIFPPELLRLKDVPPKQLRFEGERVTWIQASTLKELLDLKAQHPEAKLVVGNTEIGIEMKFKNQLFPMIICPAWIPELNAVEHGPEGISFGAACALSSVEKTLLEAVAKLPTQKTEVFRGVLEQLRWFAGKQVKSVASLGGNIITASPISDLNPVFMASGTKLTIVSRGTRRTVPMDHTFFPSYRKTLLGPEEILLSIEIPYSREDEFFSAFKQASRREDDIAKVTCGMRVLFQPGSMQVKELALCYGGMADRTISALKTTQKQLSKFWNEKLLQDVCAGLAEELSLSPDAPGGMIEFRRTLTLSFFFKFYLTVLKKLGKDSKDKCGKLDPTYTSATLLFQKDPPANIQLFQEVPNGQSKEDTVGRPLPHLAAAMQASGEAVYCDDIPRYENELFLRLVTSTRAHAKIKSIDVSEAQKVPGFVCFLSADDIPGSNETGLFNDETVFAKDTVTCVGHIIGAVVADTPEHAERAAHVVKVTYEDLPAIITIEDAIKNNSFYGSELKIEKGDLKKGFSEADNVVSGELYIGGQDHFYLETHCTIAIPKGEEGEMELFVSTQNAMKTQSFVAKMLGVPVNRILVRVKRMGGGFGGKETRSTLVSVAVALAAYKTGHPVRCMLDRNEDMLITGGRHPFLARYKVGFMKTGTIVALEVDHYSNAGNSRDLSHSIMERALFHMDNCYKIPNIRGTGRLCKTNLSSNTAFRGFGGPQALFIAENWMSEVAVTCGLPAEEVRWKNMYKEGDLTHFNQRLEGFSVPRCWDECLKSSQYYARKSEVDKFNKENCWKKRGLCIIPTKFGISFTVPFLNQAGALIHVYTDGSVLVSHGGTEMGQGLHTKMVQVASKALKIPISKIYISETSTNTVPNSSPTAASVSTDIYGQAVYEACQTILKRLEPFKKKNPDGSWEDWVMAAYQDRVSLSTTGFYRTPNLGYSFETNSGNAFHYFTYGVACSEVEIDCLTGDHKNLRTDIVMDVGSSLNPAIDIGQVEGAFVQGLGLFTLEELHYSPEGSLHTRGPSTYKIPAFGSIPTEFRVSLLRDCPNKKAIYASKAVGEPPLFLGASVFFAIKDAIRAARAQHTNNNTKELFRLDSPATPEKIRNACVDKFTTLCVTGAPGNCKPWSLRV

SMILES	IC50 [µM]
Cc1nc(-c2cc(C#N)c3c(c2)c(C)cn3C)sc1C(=O)O [Example 1, 2-(7-Cyano-1,3-dimethyl-1H-indole-5-yl)-4-methylthiazole-5-carboxylic acid]	0.019
Cn1ccc2cc(-c3cc(C(=O)O)ccn3)cc([N+](=O)[O-])c21 [Example 2, 2-(1-Methyl-7-nitro-1H-indole-5-yl) isonicotinic acid]	0.048
Cc1nc(-c2cc([N+](=O)[O-])c3c(ccn3C)c2)sc1C(=O)O [Example 3, 4-Methyl-2-(1-methyl-7-nitro-1H-indole-5-yl) thiazole-5-carboxylic acid]	0.008
O=C(O)c1ccnc(-c2cc([N+](=O)[O-])c3occc3c2)c1 [Example 4, 2-(7-Nitrobenzofuran-5-yl) isonicotinic acid]	0.254
Cc1nc(-c2cc(C#N)c3c(c2)c(C)cn3CC(C)C)sc1C(=O)O [Example 7]	0.031
Cc1nc(-c2cc(C#N)c3c(c2)c(C)cn3C(C)C)sc1C(=O)O [Example 8]	0.01
CC(C)Cn1ccc2cc(-c3cc(C(=O)O)ccn3)cc([N+](=O)[O-])c21 [Example 9]	0.013
COCCn1ccc2cc(-c3cc(C(=O)O)ccn3)cc([N+](=O)[O-])c21 [Example 10]	0.114
N#Cc1cc(-c2cc(C(=O)O)ccn2)cc2cc[nH]c12 [Example 11, 2-(7-Cyano-1H-indole-5-yl) isonicotinic acid]	0.012
Cn1ccc2cc(-c3cc(C(=O)O)ccn3)cc(C#N)c21 [Example 12, 2-(7-Cyano-1-methyl-1H-indole-5-yl) isonicotinic acid]	0.017
Cc1nc(-c2cc(C#N)c3[nH]ccc3c2)sc1C(=O)O [Example 13]	0.007

Target: T2, human URAT1 (Homo sapiens, UniProt Q96S37)
T2 construct: expressed in transfected cells; host or cells: COS7 cells (RIKEN CELL BANK RCB0539), transient transfection with pcDNA3.1
T2 sequence (Q96S37 1-553): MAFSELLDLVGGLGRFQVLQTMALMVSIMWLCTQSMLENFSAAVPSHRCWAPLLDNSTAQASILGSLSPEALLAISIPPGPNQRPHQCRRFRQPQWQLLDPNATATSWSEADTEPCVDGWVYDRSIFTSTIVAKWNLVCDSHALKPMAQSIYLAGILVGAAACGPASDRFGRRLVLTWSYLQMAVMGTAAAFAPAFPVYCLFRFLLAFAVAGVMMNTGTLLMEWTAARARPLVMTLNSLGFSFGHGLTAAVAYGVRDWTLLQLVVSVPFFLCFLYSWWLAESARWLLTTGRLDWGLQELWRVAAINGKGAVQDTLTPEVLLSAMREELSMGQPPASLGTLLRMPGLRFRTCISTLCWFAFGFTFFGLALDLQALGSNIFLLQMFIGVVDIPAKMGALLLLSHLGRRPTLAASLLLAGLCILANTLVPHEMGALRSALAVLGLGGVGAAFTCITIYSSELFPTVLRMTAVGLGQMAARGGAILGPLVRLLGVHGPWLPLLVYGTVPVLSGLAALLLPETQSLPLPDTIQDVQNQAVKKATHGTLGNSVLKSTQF
Experiment: Inhibitory activity of uric acid transport with human URAT1 expressing cells
Format: cell-based
Settings: COS-7; concentration of 100 μM; 14C-uric acid uptake in COS7 cells transiently expressing human URAT1, 20 μM uric acid, 5 minutes; read-out: Percent inhibition
Description: Full length human URAT1 cDNA (NCBI Accession No. NM_144585) was subcloned into expression vector, pcDNA3.1 (Invitrogen). Human URAT1 expression vector was transfected into COS7 cells (RIKEN CELL BANK RCB0539) using Lipofectamine 2000 (Invitrogen). COS7 cells were seeded in collagen-coated 24 well plates (Japan Becton Dickinson) at 90-95% confluency and cultured in D-MEM culture medium (Invitrogen) containing 10% fetal bovine serum (Sanko Junyaku) for 2 hours at 37° C. under the condition of 5% CO2. For 1 well, 2 μL of Lipofectamine 2000 was diluted in 50 μL of OPTI-MEM (Invitrogen) and allowed to stand at room temperature for 7 minutes (hereinafter referred to as Lipo2000-OPTI). For 1 well, 0.8 μg of human URAT1 expression vector was diluted in 50 μL of OPTI-MEM (Invitrogen) and combined gently with Lipo2000-OPTI. After standing at room temperature for 25 minutes, the mixture was added to COS7 cells at 100 μL/well. […]
All tests were performed on hot-plate at 37° C. […] After mixing, the radioactivity was counted in a liquid scintillation counter (PerkinElmer). The radioactivity in COS7 cells not transfected with URAT1 expression vector was also counted under the same condition as control. […]
A: Radioactivity in control B: Radioactivity in the case of addition of test compounds C: Radioactivity in COS7 cells not transfected with URAT1 expression vector

SMILES	inhibition at 100 µM [%]
Cn1ccc2cc(-c3cc(C(=O)O)ccn3)cc([N+](=O)[O-])c21 [Example 2, 2-(1-Methyl-7-nitro-1H-indole-5-yl) isonicotinic acid]	> 80
